The target in test [1] is T1, Sodium/glucose cotransporter 2 (Homo sapiens, UniProt P31639).
T1 sequence (P31639 whole entry): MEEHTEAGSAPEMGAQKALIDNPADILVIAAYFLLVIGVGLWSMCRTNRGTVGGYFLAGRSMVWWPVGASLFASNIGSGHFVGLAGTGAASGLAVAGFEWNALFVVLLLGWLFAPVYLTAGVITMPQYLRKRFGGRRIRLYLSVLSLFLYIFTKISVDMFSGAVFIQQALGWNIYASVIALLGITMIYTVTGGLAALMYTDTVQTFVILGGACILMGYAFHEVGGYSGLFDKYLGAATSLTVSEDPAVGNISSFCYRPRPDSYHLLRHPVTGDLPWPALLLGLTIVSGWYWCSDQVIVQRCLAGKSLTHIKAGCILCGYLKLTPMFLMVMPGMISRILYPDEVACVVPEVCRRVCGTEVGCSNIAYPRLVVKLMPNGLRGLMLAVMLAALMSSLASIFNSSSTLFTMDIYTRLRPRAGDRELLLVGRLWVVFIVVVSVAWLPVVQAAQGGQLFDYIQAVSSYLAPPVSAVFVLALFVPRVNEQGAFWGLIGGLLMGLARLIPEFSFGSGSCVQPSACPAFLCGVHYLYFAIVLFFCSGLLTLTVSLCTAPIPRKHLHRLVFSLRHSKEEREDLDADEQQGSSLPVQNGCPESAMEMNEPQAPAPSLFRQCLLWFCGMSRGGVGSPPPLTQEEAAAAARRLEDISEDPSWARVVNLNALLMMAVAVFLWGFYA
Put plainly: Inhibitory Activity Assay. As for the experimental part: (§1) The following method was used to determine the inhibitory activity of the compounds of the present invention on SGLT1 and SGLT2. The experimental method is summarized as follows:SGLT1 and SGLT2 transiently transferred HEK293 cells were seeded in a 96-well plate. The density of the cells was 1-1.5×104. The cells were cultured at 37° C. and 5% CO2 for 48 hours, and then washed twice with 200 μL sodium-free buffer. 90 μL sodium-containing buffer of the test compound at different concentrations was added to the well. Each test compound was repeated in three wells for each concentration. The cells were cultured at 37° C. for 15 minutes, then 10 μL (in number 0.1 μCi [14C]) Methyl α-D-glucopyranoside was added to each well of the 96-well plate. The cells were further cultured at 37° C. for 2 hours, then the supernatant was discarded. The cells were washed twice with pre-chilled sodium-free buffer and then dissolved in 100 μL NaOH (200 mM). 100 μL scintillation solution was added, and mixed well. Scintiloscope was used for the quantitative detection of 14C.

The target in test [2] is T2, Sodium/glucose cotransporter 1 (Homo sapiens, UniProt P13866).
T2 sequence (P13866 whole entry): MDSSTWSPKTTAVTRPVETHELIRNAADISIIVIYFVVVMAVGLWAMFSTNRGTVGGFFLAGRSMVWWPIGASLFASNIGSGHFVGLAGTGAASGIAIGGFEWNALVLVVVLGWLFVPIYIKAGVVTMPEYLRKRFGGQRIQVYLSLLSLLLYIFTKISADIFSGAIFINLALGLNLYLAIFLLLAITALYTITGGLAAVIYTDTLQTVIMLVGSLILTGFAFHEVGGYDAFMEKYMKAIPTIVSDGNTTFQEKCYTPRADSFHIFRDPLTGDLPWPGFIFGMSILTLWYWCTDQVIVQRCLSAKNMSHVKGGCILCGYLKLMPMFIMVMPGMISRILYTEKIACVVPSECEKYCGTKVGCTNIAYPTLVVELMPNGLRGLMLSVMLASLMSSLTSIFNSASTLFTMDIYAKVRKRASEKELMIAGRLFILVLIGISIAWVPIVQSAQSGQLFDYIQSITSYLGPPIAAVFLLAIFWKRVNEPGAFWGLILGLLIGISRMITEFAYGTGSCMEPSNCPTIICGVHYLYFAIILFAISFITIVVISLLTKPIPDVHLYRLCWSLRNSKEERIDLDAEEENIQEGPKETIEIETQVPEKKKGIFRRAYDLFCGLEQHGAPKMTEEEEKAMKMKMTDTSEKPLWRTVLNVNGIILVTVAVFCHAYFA
Put plainly: Inhibitory Activity Assay. The procedure: as §1

Results on two molecules are retold here after BindingDB's records for patent US10011627 (Youngene Therapeutics, 2018).

Regarding `OC[C@H]1S[C@@H](c2ccc(C3CC3)c(Cc3ccc4c(c3)OCCO4)c2)[C@H](O)[C@@H](O)[C@@H]1O` [US10011627, 5], the IC50 in test [1] amounted to 4.3 nM; in test [2], 301 nM.

Take `Cc1cc(O)c([C@@H]2S[C@H](CO)[C@@H](O)[C@H](O)[C@H]2O)cc1Cc1ccc2c(c1)OCCO2` [US10011627, 6]: the IC50 in test [1] turned out to be 2.59 nM; in test [2] it was 99.9 nM.

One may read the IC50 as the concentration that inhibits the measured activity by half. Higher therefore signals a need for much substance.
